Experimental data reported in the supplement of paper PMC8882468.
Values joined by “and” are separate entries in the source; they are usually repeats but may differ in a detail not shown here. Equal entries are not always repeated.

Experiments:
Experiment in all cases: CTG-3D luminescence at 96 h relative to day-0 seeding control (ratio to day 0); higher = more growth / less cytotoxicity; PDxO 3D drug screen (set 2), 96 h, CTG-3D normalised to day-0 seeding control.
MDA-MB-231 = test system: MDA-MB-231
HCI-024 = test system: HCI-024 (organoid from a breast cancer xenograft)
HCI-003.E2 = test system: HCI-003.E2 (organoid from an ER-positive breast cancer xenograft)
HCI-016 = test system: HCI-016 (organoid from a triple-negative breast cancer xenograft)
HCI-023 = test system: HCI-023 (organoid from a triple-negative breast cancer xenograft)
HCI-012 = test system: HCI-012 (organoid from a breast cancer xenograft)

Cc1c(CN2CCN(C(=O)[C@H](C)O)CC2)sc2c(N3CCOCC3)nc(-c3cnc(N)nc3)nc12 [apitolisib]
CTG-3D luminescence at 96 h
Details | 12.5 pM | 0.00025 µM | 0.005 µM | 0.1 µM | 1 µM | 10 µM | 100 µM | 625 fM
HCI-003.E2 | 2.46 | 2.27 | 2.31 | 1.31 | 0.0639 | 0.0361 | 0.0424 | 2.82
MDA-MB-231 | 5.6 and 5.03 | 5.7 and 4.98 | 5.72 and 5.32 | 5.01 and 4.5 | 2.91 and 2.98 | 2.31 and 2.38 | 0.873 and 0.875 | 5.53 and 5.09

CTG-3D luminescence at 96 h
Details | 12.5 pM | 0.00025 µM | 0.005 µM | 0.1 µM | 1 µM | 10 µM | 100 µM | 625 fM
HCI-012, days in culture: 214 | 3.46 | 3.38 | 1.52 | 1.74 | 0.672 | 0.176 | 0.0363 | 3.26
HCI-012, days in culture: 243 | 2.34 | 2.6 | 2.13 | 1.48 | 0.554 | 0.118 | 0.0299 | 2.51
HCI-012, days in culture: 256 | 2.08 | 2.2 | 2.08 | 2.67 | 0.805 | 0.1 | 0.0191 | 2.05
HCI-012, days in culture: 284 | 2.16 | 2.93 | 1.47 | 1.97 | 0.681 | 0.102 | 0.0089 | 3.29
HCI-016, days in culture: 305 | 2.28 | 2.68 | 3.05 | 3.53 | 0.981 | 0.764 | 0.885 | 4.57
HCI-016, days in culture: 327 | 1.06 | 1.19 | 1.2 | 1.18 | 0.573 | 0.82 | 0.546 | 1.62
HCI-016, days in culture: 341 | 2.23 | 1.71 | 1.7 | 1.65 | 0.831 | 0.768 | 0.618 | 2.56
HCI-016, days in culture: 397 | 1.26 | 1.89 | 1.41 | 1.48 | 0.778 | 0.916 | 0.378 | 1.87
HCI-023, days in culture: 223 | 2.19 | 2.65 | 1.81 | 1.85 | 0.861 | 0.971 | 0.469 | 2.04
HCI-023, days in culture: 238 | 1.77 | 1.62 | 1.45 | 1.58 | 1.5 | 0.763 | 0.38 | 1.65
HCI-023, days in culture: 252 | 1.95 | 1.92 | 1.7 | 2.06 | 1.62 | 0.654 | 0.459 | 1.97
HCI-024, days in culture: 202 | 1.67 | 1.17 | 1 | 1.17 | 0.494 | 1.03 | 0.293 | 1.42
HCI-024, days in culture: 231 | 1.04 | 1.28 | 1.23 | 1.04 | 0.577 | 0.527 | 0.227 | 1.38
HCI-024, days in culture: 254 | 1.36 | 0.995 | 0.856 | 2.4 | 0.795 | 0.608 | 0.25 | 1.94

CS(=O)(=O)CCNCc1ccc(-c2ccc3ncnc(Nc4ccc(OCc5cccc(F)c5)c(Cl)c4)c3c2)o1 [lapatinib]
CTG-3D luminescence at 96 h
Details | 12.5 pM | 0.00025 µM | 0.005 µM | 0.1 µM | 1 µM | 10 µM | 100 µM | 625 fM
HCI-003.E2 | 2.53 | 2.41 | 2.48 | 2.27 | 1.77 | 0.0655 | 0.000467 | 2.95
MDA-MB-231 | 5.64 and 5.22 | 5.66 and 5.01 | 5.76 and 5.34 | 5.51 and 5.1 | 5.57 and 4.9 | – | 0.00446 and 0.0132 | 5.54 and 5.06

CTG-3D luminescence at 96 h
Details | 12.5 pM | 0.00025 µM | 0.005 µM | 0.1 µM | 1 µM | 10 µM | 100 µM | 625 fM
HCI-012, days in culture: 214 | 2.69 | 3.04 | 1.24 | 2.07 | 1.18 | 0.474 | 0.0116 | 2.99
HCI-012, days in culture: 243 | 2.16 | 2.36 | 2.03 | 2.3 | 1.73 | 1.17 | 0.00575 | 2.33
HCI-012, days in culture: 256 | 1.96 | 2.5 | 2.14 | 2.69 | 1.63 | 1.22 | 0.0102 | 2.35
HCI-012, days in culture: 284 | 1.64 | 2.45 | 1.64 | 2.11 | 1.41 | 0.504 | -0.00107 | 3.12
HCI-016, days in culture: 305 | 2.19 | 2.44 | 2.88 | 3.72 | 1.92 | 0.286 | -0.00685 | 4
HCI-016, days in culture: 327 | 1.07 | 0.931 | 1.47 | 1.74 | 1.12 | 0.284 | 0.000753 | 2.05
HCI-016, days in culture: 341 | 2.29 | 1.62 | 2.18 | 1.86 | 1.6 | 0.474 | -0.00181 | 2.42
HCI-016, days in culture: 397 | 1.92 | 2.19 | 2.02 | 2.38 | 1.32 | 0.254 | -0.000202 | 2.47
HCI-023, days in culture: 223 | 1.82 | 2.13 | 1.85 | 2.09 | 1.46 | 0.716 | 0.00541 | 1.72
HCI-023, days in culture: 238 | 1.38 | 1.57 | 1.41 | 1.6 | 1.91 | 0.911 | 0.00517 | 1.57
HCI-023, days in culture: 252 | 2.21 | 2.11 | 1.77 | 1.94 | 1.86 | 1.14 | 0.00206 | 1.9
HCI-024, days in culture: 202 | 1.02 | 1.45 | 1.36 | 0.838 | 0.917 | 0.832 | 0.0105 | 1.54
HCI-024, days in culture: 231 | 0.876 | 1.18 | 1.07 | 1.57 | 1.44 | 0.512 | 0.00851 | 1.39
HCI-024, days in culture: 254 | 1.47 | 0.96 | 1.64 | 2.25 | 1.02 | 0.584 | 0.0095 | 1.76

Nc1cc(C(F)(F)F)c(-c2cc(N3CCOCC3)nc(N3CCOCC3)n2)cn1 [buparlisib]
CTG-3D luminescence at 96 h
Details | 12.5 pM | 0.00025 µM | 0.005 µM | 0.1 µM | 1 µM | 10 µM | 100 µM | 625 fM
HCI-003.E2 | 2.55 | 2.29 | 2.6 | 2.53 | 0.705 | 0.037 | 0.0142 | 2.71
MDA-MB-231 | 5.18 | 5.23 | 5.28 | 5.17 | 4.45 | 2.28 | 2.15 | 5.31

CTG-3D luminescence at 96 h
Details | 12.5 pM | 0.00025 µM | 0.005 µM | 0.1 µM | 1 µM | 10 µM | 100 µM | 625 fM
HCI-012, days in culture: 214 | 1.75 | 3.34 | 1.48 | 2.51 | 1.02 | 0.314 | 0.0491 | 2.11
HCI-012, days in culture: 243 | 1.8 | 2.97 | 2.35 | 2.4 | 1.59 | 0.242 | 0.0324 | 2.37
HCI-012, days in culture: 256 | 2.19 | 2.45 | 2.12 | 2.99 | 1.05 | 0.138 | 0.0266 | 1.97
HCI-012, days in culture: 284 | 1.86 | 2.37 | 1.96 | 2.4 | 1.3 | 0.282 | 0.0339 | 3.54
HCI-016, days in culture: 305 | 2.89 | 2.88 | 2.23 | 4.87 | 1.89 | 0.444 | 0.606 | 5.12
HCI-016, days in culture: 327 | 1.19 | 1.21 | 1.32 | 2.02 | 1.16 | 0.497 | 0.431 | 1.23
HCI-016, days in culture: 341 | 2.17 | 1.78 | 2.04 | 2.44 | 1.48 | 0.65 | 0.484 | 2.59
HCI-016, days in culture: 397 | 1.77 | 2.39 | 1.33 | 2.74 | 1.41 | 0.71 | 0.511 | 2.25
HCI-023, days in culture: 223 | 2.1 | 2.58 | 1.97 | 2.26 | 0.929 | 0.895 | 1.04 | 2.64
HCI-023, days in culture: 238 | 1.41 | 1.77 | 1.57 | 1.4 | 1.23 | 0.672 | 0.628 | 1.46
HCI-023, days in culture: 252 | 2.06 | 2.07 | 1.65 | 2.23 | 1.58 | 0.8 | 0.794 | 2.06
HCI-024, days in culture: 202 | 0.94 | 1.8 | 0.863 | 1.75 | 0.649 | 0.995 | 0.453 | 1.69
HCI-024, days in culture: 231 | 0.962 | 1.28 | 0.905 | 1.7 | 0.751 | 0.659 | 0.357 | 1.23
HCI-024, days in culture: 254 | 1.89 | 0.93 | 0.779 | 1.12 | 1.08 | 0.637 | 0.959 | 2.39
